# Values quoted from earlier work as cited in patent publication US5922690A (priority 1997, dated 1999).
# System: rabbits
# Conditions: in vivo
Multiple of the antithrombotic dose injected without increasing bleeding (rabbit),"Bleeding from a standardized incision in a rabbit's ear, heparin versus DS",Substance
up to forty times,,dermatan sulfate [DS]
,much greater,heparin
